Test [1] deals with E. coli (ATCC 25922) standard strain. Nature of the test: Antibacterial property of polymerizable antibacterial monomer against E. coli (absorbance at 600 nm). As to conditions: 18 hours at 35° C.; for Optical density: diluted to 1/5, 600 nm. It is filed as cell-based, Escherichia coli. The method, then: (§1) The monomer was put in a 50 ml conical tube according to the content of Table 1 below, and then 25 ml of a nutrient broth (Becton Dickinson) solution, to which 3000±300 CFU/ml of E. coli (ATCC 25922) standard strain was inoculated, was injected. After culturing for 18 hours in a shaking incubator (Vision Scientific, VS-37SIF) at 35° C., the culture solution was diluted to ⅕ concentration using 1× PBS (Gibco). The absorbance of the diluted solution was measured at a wavelength of 600 nm using a UV-Vis spectrophotometer. At this time, the absorbance measured after culturing the nutrient broth solution to which the bacteria was inoculated without the addition of the monomer was compared to the absorbance of the sample to which the monomer was added, and the degree of growth of the bacteria was examined. The bacterial growth-inhibitory rate was calculated according to the following Equation 1, and the results are shown in Table 1 below. Bacterial growth-inhibitory rate(%)=[(ODReference−ODsample)/ODReference]*100 [Equation 1] in Equation, ODReference represents absorbance of the culture medium of Comparative Experimental Example 1-1 without the antibacterial material, and ODsample represents absorbance of the culture medium with the antibacterial material.

For test [2], the system named is Proteus mirabilis (P. mirabilis, ATCC 29906) standard strain. The experiment in a line: Antibacterial property of polymerizable antibacterial monomer against Proteus mirabilis (absorbance at 600 nm). The settings on record: 18 hours at 35° C.; for Optical density: diluted to 1/5, 600 nm. It is filed as cell-based. The method, then: as §1, with “To examine the antibacterial properties” for “Bacterial growth-inhibitory rate(%)=[(ODReference−ODsample)/ODReference]*100 [Equation 1] in Equation, ODReference represents absorbance”, “monomer 2-(tert-butylamino)ethyl methacrylate included in Examples and the monomer 2-(dimethylamino)ethyl methacrylate against Proteus mirabilis, the bacterial growth-inhibitory rate (%) against Proteus mirabilis (P. mirabilis) was calculated in the same manner as in the antibacterial property evaluation for E. coli, except that a nutrient broth solution, to which 3000±300 CFU/ml of Proteus mirabilis (P. mirabilis, ATCC 29906) standard strain was inoculated instead of E. coli (ATCC 25922), was used. In calculating the bacteriostatic reduction rate using Equation 1, CReference represents CFU of bacteria after culturing with the monomer” for “culture medium”, “2-1” for “1-1”, “antibacterial” for “antibacterial material, and ODsample represents absorbance of the culture medium with the antibacterial”

[3] abbreviates: 0.03 g monomer in 25 ml nutrient broth.
Where [4] appears, read: 0.05 g monomer in 25 ml nutrient broth.
Where [5] appears, read: 0.07 g monomer in 25 ml nutrient broth.

In the case of `C=C(C)C(=O)OCCN(C)C` [2-(dimethylamino)ethyl methacrylate], the “Bacterial growth-inhibitory rate (%)” value in test [1] (setting [3]) came out at 0.00%; in test [1] (setting [4]), 3.67%; in test [1] (setting [5]), 23.98%; in test [2] (setting [3]) it was 3.37%; in test [2] (setting [4]) it was 20.22%; in test [2] (setting [5]) it was 67.98%. The Optical density in test [1] (setting [3]) worked out at 0.196; in test [1] (setting [4]), 0.189; in test [1] (setting [5]), 0.149; in test [2] (setting [3]) it was 0.172; in test [2] (setting [4]), 0.142; in test [2] (setting [5]), 0.057.

Take `C=C(C)C(=O)OCCNC(C)(C)C` [2-(tert-butylamino)ethyl methacrylate]: the “Bacterial growth-inhibitory rate (%)” value in test [1] (setting [3]) turned out to be 5.61%; in test [1] (setting [4]), 64.29%; in test [1] (setting [5]) it was 95.41%; in test [2] (setting [3]), 19.10%; in test [2] (setting [4]), 43.82%; in test [2] (setting [5]), 94.94%. Moreover, the Optical density in test [1] (setting [3]) is given as 0.185; in test [1] (setting [4]), 0.070; in test [1] (setting [5]) it was 0.009; in test [2] (setting [3]) it was 0.144; in test [2] (setting [4]) it was 0.100; in test [2] (setting [5]) it was 0.009.

The values above are taken from patent US20230405552A1, “Super Absorbent Polymer and Preparation Method Thereof” (LG Chem, Ltd., priority 2021, published 2023).
